Literature values in patent publication US10981928B2, “Methods of making low odor choline salts of an organic compound” (HALO LIFE SCIENCE, LLC, priority 2016, dated 2021).
Converted amounts (≈) assume the structure as drawn.

What was measured:
[1] = comparison value
[2] = PEG 400 at 37° C.; comparison value

- solubility in water [1]: ~4 µg/mL (≈ 0.0132 mM)
- solubility in PEG 400 [2]: 8000 µg/mL (≈ 26.5 mM)
SMILES: O=c1oc2c(O)c(O)cc3c(=O)oc4c(O)c(O)cc1c4c23 [ellagic acid]
